# Measured values: US20050020576A1, “Kappa agonist compounds and pharmaceutical formulations thereof” (priority 1996, published 2005)
# Structures can show the parent of a compound that is named as a salt. Where two headings read alike, the source gives them in different places.
# What was measured:
# [1] = target: cloned human kappa receptor (Homo sapiens, UniProt P41145); assay: biochemical; type: binding
# [2] = test system: formalin-induced flinching; assay: animal or person; type: in vivo, male Sprague-Dawley rats; details: for inhibition in vivo at 0.3 µM: Rattus norvegicus, read-out: Formalin (% A @ 300 nM) i. paw
# [3] = Table IA, read-out: Ki(nM) (3H)-Diprenorphin
# cloned human kappa receptor, sequence (P41145 whole entry): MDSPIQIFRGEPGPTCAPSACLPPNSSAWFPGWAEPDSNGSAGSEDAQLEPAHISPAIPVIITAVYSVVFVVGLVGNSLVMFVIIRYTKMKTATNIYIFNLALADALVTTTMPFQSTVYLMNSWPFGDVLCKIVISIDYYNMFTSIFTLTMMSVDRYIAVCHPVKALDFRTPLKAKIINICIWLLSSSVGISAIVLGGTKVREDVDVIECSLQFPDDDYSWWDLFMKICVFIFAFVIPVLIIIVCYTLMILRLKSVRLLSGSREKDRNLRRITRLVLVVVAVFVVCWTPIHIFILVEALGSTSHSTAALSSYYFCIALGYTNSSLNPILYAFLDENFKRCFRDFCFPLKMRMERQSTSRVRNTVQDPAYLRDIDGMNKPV
SMILES,melting point,also measured
"COC(=O)N1CCN(C(=O)Cc2ccc(Cl)c(Cl)c2)C(CN2CCC[C@H]2COC(=O)Cc2ccc(Cl)c(Cl)c2)C1 (mixture of isomers) [Example 1k, Methyl-4-[(3,4-dichlorophenyl)acetyl]-3-(R,S)-[(2-(S)-pyrrolidinemethyl-3′,4′-dichlorophenyl acetate)methyl]-1-piperazinecarboxylate hydrochloride]",–,"Ki ([1]; Ki, nM 3H-Diprenorphin): 51.5 nM; inhibition in vivo at 0.3 µM [2]: 95%"
"CS(=O)(=O)N1CCN(C(=O)Cc2ccc(Cl)c(Cl)c2)C(CN2CC[C@H](O)C2)C1 (mixture of isomers) [Example 1ll, 4-Methylsulphonyl-1-[(3,4-dichlorophenyl)acetyl]-2-(R,S)-[(3-(S)-hydroxy-1-pyrrolidinyl)methyl]piperazine hydrochloride]",–,"Ki ([1]; Ki, nM 3H-Diprenorphin): 2.86 nM; inhibition in vivo at 0.3 µM [2]: 52%"
"COC(=O)N1CCN(C(=O)Cc2ccc(C(F)(F)F)cc2[N+](=O)[O-])C(CN2CCC[C@H]2CO)C1 (mixture of isomers) [Example 1m, Methyl-4-[(2-nitro-4-α,α,α-trifluoromethylphenyl)acetyl]-3-(R,S)-[(2-(S)-pyrrolidinemethanol)methyl]-1-piperazinecarboxylate hydrochloride]",–,"Ki ([1]; Ki, nM 3H-Diprenorphin): 49.5 nM; Formalin A50 mg/kg s.c. ([2]; rat, in vivo, sc): 1.7 mg/kg"
"COC(=O)N1CCN(C(=O)Cc2ccc(S(C)(=O)=O)cc2)C(CN2CCC[C@H]2CO)C1 (mixture of isomers) [Example 1o, Methyl-4-[(4-methylsulphonylphenyl)acetyl]-3-(R,S)-[(2-(S)-pyrrolidinemethanol)methyl]-1-piperazinecarboxylate hydrochloride]",–,"Ki [1, 3]: 133 nM; inhibition in vivo at 0.3 µM [2]: 41%"
"COC(=O)N1CCN(C(=O)Cc2ccc(Cl)c(Cl)c2)C(CN2CC[C@H](OC(=O)Cc3ccc(Cl)c(Cl)c3)C2)C1 (mixture of isomers) [Example 1q, Methyl-4-[(3,4-dichlorophenyl)acetyl]-2-(R,S)-[3-(S)-(3′,4′-dichlorophenyl acetate)-1-(pyrrolidinyl)methyl]-1-piperazinecarboxylate hydrochloride]",–,"Ki ([1]; Ki, nM 3H-Diprenorphin): 5.2 nM; inhibition in vivo at 0.3 µM [2]: 98%"
"CC(=O)N1CCN(C(=O)Cc2ccc(Cl)c(Cl)c2)C(CN2CC[C@H](OC(=O)Cc3ccc(Cl)c(Cl)c3)C2)C1 (mixture of isomers) [Example 1w, 4-Acetyl-1-[(3,4-dichlorophenyl)acetyl]-2-(R,S)-[3-(S)-(3′,4′-dichlorophenyl acetate)-1-(pyrrolidinyl)methyl]piperazine hydrochloride]",–,"Ki [1, 3]: 1160 nM; inhibition in vivo at 0.3 µM [2]: 60%"
"CC(=O)N1CCN(C(=O)Cc2ccc(Cl)c(Cl)c2)C(CN2CCC[C@H]2CO)C1 (mixture of isomers) [Example 1z, 4-Acetyl-1-[(3,4-dichlorophenyl)acetyl]-2-(R,S)-[(2-(S)-pyrrolidinemethanol)methyl]piperazine hydrochloride]",–,"Ki [1, 3]: 102 nM; inhibition in vivo at 0.3 µM [2]: 71%"
"COC(=O)N1CCN(C(=O)Cc2ccccc2[N+](=O)[O-])C(CN2CCCC2)C1 (racemic) (as salt: hydrochloride) [(R,S-9d), (R,S)-Methyl 4-[(2-nitrophenyl)acetyl]-3-[(1-Pyrrolidinyl)-methyl]-1-piperazine-carboxylate hydrochloride]",228 °C,–
"COC(=O)N1CCN(C(=O)Cc2ccccc2OC)C(CN2CCCC2)C1 (racemic) (as salt: hydrochloride) [(R,S-9e)]",120 °C,–
"COC(=O)N1CCN(C(=O)Cc2ccccc2N)C(CN2CCCC2)C1 (racemic) (as salt: hydrochloride) [(R,S-9f), (R,S)-Methyl 4-[(2-aminophenyl)acetyl]-3-[(1-pyrrolidinyl)-methyl]-1-piperazine-carboxylate dihydrochloride]",195 °C (dec.),–
"CC(=O)N1CCN(C(=O)Cc2ccc(S(C)(=O)=O)cc2)C(CN2CCCC2)C1 (racemic) (as salt: hydrochloride) [(R,S-10a)]",145 to 147 °C,–
"CC(=O)N1CCN(C(=O)Cc2ccc(C(F)(F)F)cc2)C(CN2CCCC2)C1 (racemic) (as salt: hydrochloride) [(R,S-10b)]",110 °C,–
"CC(=O)N1CCN(C(=O)Cc2cccc([N+](=O)[O-])c2)C(CN2CCCC2)C1 (racemic) (as salt: hydrochloride) [(R,S-10d), (R,S)-4-Acetyl-1-[(3-nitrophenyl)acetyl]-3-[(1-pyrrolidinyl)-methyl]piperazine-carboxylate hydrochloride]",143 to 145 °C,–
"CC(=O)N1CCN(C(=O)Cc2ccccc2[N+](=O)[O-])C(CN2CCCC2)C1 (racemic) (as salt: hydrochloride) [(R,S-10e), (R,S)-4-Acetyl-1-[(2-nitrophenyl)acetyl]-3-[(1-pyrrolidinyl)-methyl]piperazine-carboxylate hydrochloride]",180 °C (dec.),–
"COC(=O)N1CCN(C(=O)Cc2ccc(C(F)(F)F)cc2N(S(C)(=O)=O)S(C)(=O)=O)C(CN2CCCC2)C1 (racemic) (as salt: hydrochloride) [Example 1b, Methyl-4-[(2-[N,N-bis-methylsulfonamido]-4-trifluoromethyphenyl)acetyl]-3-(R,S)-[(1-pyrrolidinyl)-methyl]-1-piperazinecarboxylate dihydrochloride]",155 to 160 °C,–
"COC(=O)N1CCN(C(=O)Cc2ccccc2N(S(C)(=O)=O)S(C)(=O)=O)C(CN2CCCC2)C1 (racemic) (as salt: hydrochloride) [Example 1d, Methyl-4-[(2-[N,N-bis-methylsulfonamido]phenyl)acetyl]-3-(R,S)-[(1-pyrrolidinyl)methyl]-1-piperazinecarboxylate hydrochloride]",145 to 150 °C,–
"CNS(=O)(=O)c1ccccc1CC(=O)N1CCN(C(=O)OC)CC1CN1CCCC1 (racemic) (as salt: hydrochloride) [Example 1e, Methyl-4-[(2-[N-methylamino)sulfamyl]phenyl)acetyl]-3-(R,S)-[(1-pyrrolidinyl)methyl]-1-piperazinecarboxylate hydrochloride]",155 to 160 °C,–
"CNS(=O)(=O)c1ccc(CC(=O)N2CCN(C(=O)OC)CC2CN2CCCC2)cc1 (racemic) (as salt: hydrochloride) [Example 1f, Methyl-4-[-4-[N-methylamino)sulfamyl]phenyl)acetyl]-3-(R,S)-[(1-pyrrolidinyl)methyl]-1-piperazinecarboxylate hydrochloride]",135 to 140 °C,–
"O=C(Cc1ccc(C(F)(F)F)cc1)N1CCN(C(=O)C(F)(F)F)CC1CN1CCCC1 (racemic) (as salt: hydrochloride) [Example 1h, 4-Trifluoroacetyl-1-[(-4-trifluoromethylphenyl)acetyl]-2-(R,S)-(1-pyrrolidinyl)methyl]piperazine hydrochloride]",140 to 145 °C,–
"CN(C(=O)Cc1ccc(Cl)c(Cl)c1)[C@H](CN1CCCC1)c1cccc(NS(N)(=O)=O)c1 (racemic) (as salt: hydrochloride) [Example 3c, 2-(3,4-Dichlorophenyl)-N-methyl-N-[(1R,S)-1-(3-sulfamidophenyl)-2-(1-pyrrolidinyl)ethyl]acetamide hydrochloride]",198 to 200 °C,–
COc1ccc(C(CN2CCCC2)N(C)C(=O)Cc2ccccc2NS(C)(=O)=O)cc1 (racemic) (as salt: salt) [Example 128],170 to 172 °C,–
CNS(=O)(=O)c1ccccc1CC(=O)N(C)C(CN1CCCC1)c1ccccc1F (racemic) (as salt: salt) [Example 147],232 to 234 °C,–
"COc1cccc(C(CN2CCCC2)N(C)C(=O)Cc2ccccc2NS(C)(=O)=O)c1 (racemic) (as salt: sulfonic acid salt) [Example 3uu, (R,S)-1-[2-(Methanesulfonylamino)phenyl-N-methylacetamido]-1-(3-methoxyphenyl)-2-(1-pyrrolidino)-ethane, methanesulfonic acid salt]",135 °C (dec.),–
"CN(C(=O)Cc1ccccc1NS(C)(=O)=O)C(CN1CCCC1)c1cccc(O)c1 (racemic) (as salt: sulfonic acid salt) [Example 3vv, (R,S)-1-[2-(Methanesulfonylamino)phenyl-N-methylacetamido]-1-(3-hydroxyphenyl)-2-(1-pyrrolidino)-ethane, methanesulfonic acid salt]",232 to 234 °C,–
"COC(=O)N1CCN(C(=O)Cc2ccc(C(F)(F)F)cc2NCC(=O)O)C(CN2CCCC2)C1 (racemic) [Example 1a, Methyl-4-[-2-glycyl-4-(trifluoromethylphenyl)acetyl]-3-(R,S)-[(1-pyrrolidinyl)-methyl]-1-piperazinecarboxylate]",165 to 170 °C,"Ki [1, 3]: 248 nM"
"CNS(=O)(=O)c1cc(CC(=O)N(C)[C@@H]2CCCC[C@H]2N2CCCC2)ccc1F.Cl (racemic) [Example 4i, (±)-trans-4-Fluoro-3-methylsulfamoyl-N-methyl-N-[2-(1-pyrrolidinyl)cyclohexyl]phenylacetamide hydrochloride]",265 to 267 °C,"[3H]-Diprenorphin, % @ 1 μM [1]: 31% @ 1 μM"
CN(C(=O)Cc1ccc(Cl)c(Cl)c1)[C@@H]1c2cc(N(CC(=O)O)CC(=O)O)ccc2CC[C@H]1N1CCCC1 (relative stereo) (as salt: HCl),160 °C (dec.),–
"CNS(=O)(=O)c1cccc(CC(=O)N(C)[C@H](CN2CCCC2)c2ccccc2)c1.Cl [Example 3q, 3-(N-Methylsulfamoyl)-phenyl-N-methyl-N-[(1S)-1-phenyl-2-(1-pyrrolidinyl)ethyl]acetamide hydrochloride]",> 250 °C (dec.),Ki ([1]; Ki (nM) [3H]-Diprenorphin κ): 3.2 nM
"CN(C(=O)C(c1ccccc1)c1ccccc1)[C@H](CN1CC[C@H](O)C1)c1ccccc1 [III-43, reference compound]",–,"Late Phase Formalin A50, mg/ms (i-paw) ([2]; rat, in vivo): 59 mg/ms (i-paw) 28 mg/kg (sc); Late Phase Formalin A50, mg/kg (sc) ([2]; rat, in vivo, sc): 59 mg/ms (i-paw) 28 mg/kg (sc)"
